Assay: xn = mol fraction of the nth substance listed
Conditions: 101 kPa, Liquid; for viscosity: Capillary tube (Ostwald / Ubbelohde) method; for mass density: Vibrating tube method

CCCCCCn1cc[n+](C)c1.[Cl-] [1-hexyl-3-methylimidazolium chloride] + O
Conditions	mass density, 298.15 K [kg/m3]	mass density, 313.15 K [kg/m3]	mass density, 328.15 K [kg/m3]	mass density, 343.15 K [kg/m3]	viscosity, 298.15 K [mPa·s]	viscosity, 313.15 K [mPa·s]	viscosity, 328.15 K [mPa·s]	viscosity, 343.15 K [mPa·s]
x2 = 0	1039.67	1031.13	1022.69	1014.34	18089	3429	942.1	339.5
x2 = 0.1274	1040.45	1031.89	1023.44	1015.06	7667	1746	516.4	207.4
x2 = 0.3173	1040.7	1032.22	1023.8	1015.5	1020	393.5	165.7	79.07
x2 = 0.3906	1040.95	1032.63	1024.3	1015.77	499.4	188.9	86.76	45.52
x2 = 0.5594	1041.4	1032.76	1024.14	1015.4	201.2	88.11	44.87	25.37
x2 = 0.7127	1038.77	1029.8	1020.75	1011.45	60.75	30.04	16.83	10.39
x2 = 0.783	1035.72	1026.67	1017.17	1007.71	33.79	17.49	10.17	6.542
x2 = 0.8935	1025.28	1016.2	1006.79	997	8.688	5.191	3.367	2.358
x2 = 0.9417	1018.17	1009.43	1000.13	990.26	3.505	2.323	1.649	1.224

CCCCn1cc[n+](C)c1.[Cl-] [1-butyl-3-methylimidazolium chloride] + O
Conditions	mass density, 298.15 K [kg/m3]	mass density, 313.15 K [kg/m3]	mass density, 328.15 K [kg/m3]	mass density, 343.15 K [kg/m3]	viscosity, 298.15 K [mPa·s]	viscosity, 313.15 K [mPa·s]	viscosity, 328.15 K [mPa·s]	viscosity, 343.15 K [mPa·s]
x2 = 0.5666	1081	1072	1063.4	1054.7	123.5	56.63	30.04	17.69
x2 = 0.607	1079.9	1070.8	1062	1053.1	72.16	35.36	19.75	12.2
x2 = 0.6933	1076.5	1067.2	1058.1	1048.8	35.66	18.94	11.32	7.386
x2 = 0.7698	1071.1	1061.5	–	–	18.08	10.11	–	–
x2 = 0.7699	–	–	1052.1	1042.4	–	–	6.474	4.419
x2 = 0.8279	1063.8	1054.1	1044.5	1034.4	10.19	6.125	4.019	2.858
x2 = 0.8674	1057.1	1047.1	1037.3	1027.1	6.628	4.123	2.795	2.043
x2 = 0.9194	1042.3	1032.8	1023.3	1013.1	3.543	2.311	1.635	1.228
x2 = 0.9625	1022.3	1014	1006.1	996.7	1.886	1.297	0.955	0.741
x2 = 0.9885	1005.2	999.1	989.3	979.6	1.175	0.955	0.753	0.652

From the NIST ThermoML archive (doi:10.1021/je050460d)
